Results as given in patent US8329643B2, “PIMAP39 modulates LPS-induced inflammatory response” (Trustees of Boston University, priority 2008, dated 2012).

Tests used:
[1] = tested on: LPS-induced TNF-α production; assay: Effects of inhibitors on LPS-induced TNF-α production in THP-1 cells (ELISA); assay type: cell-based, human; settings: for LPS-induced TNF-α expression compared to LPS alone / TNF-α levels within 8-10 hrs post treatment: THP-1 cells; for LPS-induced TNF-α expression compared to LPS alone: 0.1 μg/ml E. coli LPS, 10 μM sodium orthovanadate, 20 μM AG490, U0126 or SB203580, ELISA 2-16 hours; for TNF-α levels within 8-10 hrs post treatment: LPS + inhibitor, ELISA
Method: THP-1 cells were differentiated with 100 nM phorbol-12-myristate-13-acetate (PMA) and seeded (1×10^5) in 6-well plates overnight. After washing by PBS, cells were stimulated with 0.1 mg/ml E. coli LPS for 3 hrs. The cells were washed with PBS again and treated with various inhibitors. 10 μM Sodium orthovandate, 20μM AG490, 20μM U0126, 20μM SB203580 or untreated as control. 200μl of supernatant was collected for ELISA assay (A) from each treatment at 2, 4, 6, 8, 12, 14 and 16 hours and its corresponding mRNA was prepared for RT-PCR (B) by first extracting total RNA from the treated cells using QIAQuick™ RNA miniprep (Qiagen). 1μg of each RNA was used to generate cDNA with Platinum® Quantitative RT-PCR ThermoScript™ One-Step System kit (Invitrogen). 10 ng pf cDNA from each test was PCRed using PTP4A3 forward primer 5′-[…]-3′ [SEQ ID NO: 2] and reverse primer 5′-[…]-3′ [SEQ ID NO: 3]. Another 1 ng of cDNA was PCRed using GAPDH primer pairs (Invitrogen) as control. Densitometric analysis (C) of RT-PCR (B) with intensity values normalized to GAPDH and using 0 hour value as reference intensity.
AG490, U0126 and SB203580 were purchased from EMD Biosciences (San Diego, Calif.). Sodium orthovanadate was purchased from Sigma-Aldrich (Saint Louis, Mo.). Human THP-1 cells were treated with 10 μM Sodium orthovanadate (PTP4A3 inhibitor [Greenwel, P, et al., (1995) Tyrosine dephosphorylation of nuclear proteins mimics transforming growth factor beta 1 stimulation of alpha 2(1) collagen gene expression. Mol Cell Biol 15:6813-6819], 20 μM AG490 (JAK inhibitor [Saudemont, A, et al., (2007) Dormant tumor cells develop cross-resistance to apoptosis induced by CTLs or imatinib mesylate via methylation of suppressor of cytokine signaling 1. Cancer Res 67:4491-4498], 20 μM U0126 (ERK inhibitor [Yang, L, et al., (2007) Inhibition of epidermal growth factor receptor signaling elevates 15-hydroxyprostaglandin dehydrogenase in non-small-cell lung cancer. Cancer Res 67:5587-5593], 20 μM SB203580 (p38 MAPK inhibitor [Hsieh, Y H, et al., (2007) p38 mitogen-activated protein kinase pathway is involved in protein kinase Calpha-regulated invasion in human hepatocellular carcinoma cells. Cancer Res 67:4320-4327].
For primary mouse macrophages or THP-1, cells were seeded (2×10^4 cells in 96-well plate or 2×10^6 cells in six-well plate) and were stimulated with […] of E. coli LPS (Sigma) and/or transiently transfected with […] of DNA using Lipofectamine™ Reagent and/or introduced with 500 ng/ml peptide using Chariot™ kit (ActiveMotif; Carlsbad, Calif.) prior to LPS treatment, then incubated at 37° C., 5% CO2 overnight. Culture supernatants were harvested and centrifuged at 1,500×g to remove cell debris. Concentrations of mouse or human TNF-α in the supernatant of each well of treated and untreated control cells were measured by ELISA (Abraxis, Warminster, Pa.). ELISA immunoreactivity was quantified by using a microplate reader (Bio-Rad, Hercules, Calif.) and graphed.
To investigate a link between PTP4A3 and the LPS signaling cascade, HP-1 cells were co-treated with 0.1 μg/ml E. coli LPS and/or various inhibitors, sodium orthovanadate (PTP4A3 inhibitor), AG490 (JAK inhibitor), U0126 (ERK inhibitor), SB203580 (p38 MAPK inhibitor) or untreated as control. The supernatants from cell culture at each time point (2, 4, 6, 8, 10, 12, 14 and 16 hours post stimulation) were collected and the potential role of these inhibitors on TNF-α production was measured by ELISA (Abraxis; […].). In parallel mRNA from each experimental group was prepared and quantified by RT-PCR.

PTP4A3 gene expression = assay: PTP4A3 expression by RT-PCR in LPS plus inhibitor treated THP-1 cells; assay type: cell-based, human; settings: time course
Method: THP-1 cells were differentiated with 100 nM phorbol-12-myristate-13-acetate (PMA) and seeded (1×10^5) in 6-well plates overnight. After washing by PBS, cells were stimulated with 0.1 mg/ml E. coli LPS for 3 hrs. The cells were washed with PBS again and treated with various inhibitors. 10 μM Sodium orthovandate, 20μM AG490, 20μM U0126, 20μM SB203580 or untreated as control. 200μl of supernatant was collected for ELISA assay (A) from each treatment at 2, 4, 6, 8, 12, 14 and 16 hours and its corresponding mRNA was prepared for RT-PCR (B) by first extracting total RNA from the treated cells using QIAQuick™ RNA miniprep (Qiagen). 1μg of each RNA was used to generate cDNA with Platinum® Quantitative RT-PCR ThermoScript™ One-Step System kit (Invitrogen). 10 ng pf cDNA from each test was PCRed using PTP4A3 forward primer 5′-ATGGCTCGGATGAACCGC-3′ [SEQ ID NO: 2] and reverse primer 5′-CTACATAACGCAGCACCG-3′ [SEQ ID NO: 3]. Another 1 ng of cDNA was PCRed using GAPDH primer pairs (Invitrogen) as control. Densitometric analysis (C) of RT-PCR (B) with intensity values normalized to GAPDH and using 0 hour value as reference intensity.
The PCR or RT-PCR was performed following manufacturer's instructions.

[2] = tested on: LPS-induced TNF-α expression; settings: monocyte cells, 'current studies'; cited from earlier work
[3] = tested on: p38α/LITAF signaling pathway; assay: Western blot of p38α/LITAF signaling pathway in LPS-treated THP-1 cells after PTP4A3 overexpression or RNAi; assay type: cell-based, human
Method: THP-1 cells (1×10^5) were stimulated with 0.1 μg/ml E. coli LPS for 3 hours. The cells were washed and transiently transfected with DNAs above using Lipofectamine™ reagent (Invetrogen). Treated cells were then incubated overnight. The supernatants from each culture were measured by ELISA. Elisa immunoreactivity was quantified using a microplate reader (Bio-Rad) and graphed (A). […] THP-1 cells (B) or mouse macrophage cells (C) were stimulated with 0.1 μg/ml E. coli LPS alone for 3 hours and then transfected with 1 μg/ml pcHAPTP DNA (B & C, lane 3) or 1 μg/ml pcDNA (B & C, lane 2) and untreated (B & C, lane 1) as controls by Lipofectamine reagent. Treated cells were incubated overnight and lysed. […]
THP-1 cells (5×10^6) matured by treatment with 200 nM phorbol 12-myristate 13-acetate (Sigma) were treated or untreated with 0.1 μg/ml LPS (Sigma) for 3 h and washed with PBS. […] The protein lysate from the treated or untreated cells were analyzed by Western blotting. […]
LITAF remains inactivated in the absence of p38 MAP kinase (p38α) and the inhibition of p38α down-regulates cytokines such as TNF-α [Tang, X, et al., (2006) LPS-induced TNF-alpha factor (LITAF)-deficient mice express reduced LPS-induced cytokine: Evidence for LITAF-dependent LPS signaling pathways. […] The lysate protein from each treated cell culture was detected by Western blot analysis. […]

In the case of N#C/C(=C/c1ccc(O)c(O)c1)C(=O)NCc1ccccc1 [AG490], the “LPS-induced TNF-α expression compared to LPS alone” value [1] is reported as “did not result in a significant decrease”, the “TNF-α levels within 8-10 hrs post treatment” value [1] is reported as “did not increase at all” and the “PTP4A3 expression (RT-PCR)” value (PTP4A3 gene expression) is reported as “at a maximum between 8-10 hrs”.
For CO[C@H]1[C@@H](OC)C[C@H](C)[C@@H](OC)C2=CC(=O)C=C(NC(=O)/C(C)=C/C=C\[C@H](OC)[C@@H](OC(N)=O)/C(C)=C/[C@@H]1C)C2=O [Herbimycin-A], the “LPS-induced TNF-α expression at protein and mRNA levels” value [2] is given as “markedly attenuated”.
With [Na+].[Na+].[Na+].[O]=[V]([O-])([O-])[O-] [sodium orthovanadate, Sodium orthovanadate] the “LPS-induced expression of TNF-α on co-treatment” value ([1]; LPS and orthovanadate, FIG. 1, 8-16 hrs) was “augmented”, the “LPS-induced TNF-α expression compared to LPS alone” value [1] was “did not result in a significant decrease” and the “concentration of secreted TNF-α higher than LPS only treated cells” value ([1]; on average, at the 8 hr mark and beyond, LPS + 10 μM sodium orthovanadate) was 20%. For the same compound, the “PTP4A3 expression (RT-PCR)” value (PTP4A3 gene expression) was “No such maximum occurred” and the “LPS-induced TNF-α expression at protein and mRNA levels” value [2] was “further enhanced”.
In the case of O=c1c(-c2ccc(O)cc2)coc2cc(O)cc(O)c12 [genistein], the “LPS-induced TNF-α expression at protein and mRNA levels” value [2] is given as “markedly attenuated”.
For “GUACGAGGACGCCAUCCAGUU & AACUGGAUGGCGUCCUCGUAC (listed as RNA, chemistry not given here) [RNAi, small interfering RNA (siRNA) specific for PTP4A3]”, the “p38α phosphorylation in response to LPS” value ([3]; FIG. 4D, 100 nM siRNA or 0.5 mg pcHAPTP) was “significantly increased” and the “ability of overexpressed PTP4A3 to dephosphorylate p38” value ([3]; pcHAPTP plus RNAi, FIG. 4D lane 5) was “suppressed”.
In the case of C[S+]([O-])c1ccc(-c2nc(-c3ccncc3)c(-c3ccc(F)cc3)[nH]2)cc1 (centres unmarked) [SB203580], the “LPS-induced TNF-α expression compared to LPS alone” value [1] is reported as “significant decrease” and the “PTP4A3 expression (RT-PCR)” value (PTP4A3 gene expression) is reported as “at a maximum between 8-10 hrs”.
In the case of N#CC(=C(/N)Sc1ccccc1N)/C(C#N)=C(\N)Sc1ccccc1N [U0126], the “LPS-induced TNF-α expression compared to LPS alone” value [1] is reported as “did not result in a significant decrease”, the “TNF-α levels within 8-10 hrs post treatment” value [1] is reported as “did not increase at all” and the “PTP4A3 expression (RT-PCR)” value (PTP4A3 gene expression) is reported as “at a maximum between 8-10 hrs”.
